In the experiment the test system is NIH3T3 cells overexpressing the HER2 kinase (3T3-HER2). Put plainly: 3T3 growth assay, HER2C7 cells (3T3-HER2). To be noted: Mus musculus, NIH3T3, 96 h, Table VI, 2% FBS, 4 days. It is filed as cell-based. An excerpt: This example illustrates the ability of the exemplary compounds to inhibit receptor tyrosine kinases, such as HER2 and/or EGFR. The following target cells were used for cellular kinaseassays: NIH3T3 clone C7 (Honegger et al., supra) engineered to over-express human EGF receptor; NIH3T3 cells engineered to over-express a chimeric receptor containing the EGFR extracellular domain and the HER2 intracellular kinase domain; the human mammary carcinoma line BT474 (ATCC HTB2) expressing HER2; and the human glioblastoma line U1242 that expresses PDGFR-β. Growth assays were carried out using human mammary epithelial SKBR3 (ATCC HTB30) cells, SKOV3 (ATCC HTB77) human ovarian cancer cell line, A431 cells, MCF7 human breast carcinoma cells, MCF7 cells overexpress the HER2 kinase (MCF7-HER2), NIH3T3 cells, and NIH3T3 cells overexpressing the HER2 kinase (3T3-HER2).
The 3T3 growth assay was carried out as follows:
(1) Dulbecco's Modified Eagle Medium (D-MEM), Gibco 11965-050;
(4) Fetal Bovine Serum Certified, Gibco 16000-028;
(5) Dulbecco's Phosphate-Buffered Saline (D-PBS), Gibco 14190-029;
(6) Sulforhodamine B (SRB), Sigma S-9012. 0.4% SRB in 1% acetic acid;
(7) 10 mM Tris-base, Fisher BP152-5;
(8) 10% TCA, Trichloroacetic acid, Fisher A322-500;
(9) 96-well flat bottom plate (sterile), Corning 08-757-155;
(10) 100 ml reagent reservoir 9 (sterile), Matrix Technologies Corporation, 8086;
(11) Sterile pipet tips, Fisher 21-197-8E;
NIH3T3C7 cells in 10% CS+2 mM GLN DMEM HER2C7 cells in 2% FBS+2 mM GLN DMEM
(1) HER2C7 (engineered to express HER2) and NIH3T3C7 (as the control) cells are used for this assay. NIH3T3C7 cells are seeded at 2500 cells/well, […] in 10% CS+2 mM GLN DMEM, in a 96 well plate; HER2C7 cells are seeded at 6000 cells/well, 100 μl/well in 2% FBS+2 mM GLN DMEM, in a 96 well plate. Cells are incubated at 37° C., 5% CO2 overnight to allow for cell attachment to the plate;
(2) The test compound is added to the cells at day 2. The compounds are prepared in the appropriate growth medium (10% CS+2 mM) GLN DMEM for NIH3T3C7 cells; 2% FBS+2 mM GLN DMEM for HER2C7 cells) in a 96 well plate, and serially diluted. A total of 100 μl/well medium of the diluted compounds is added into the cells. The total volume of each well is 200 μl. Quadruplicates (wells) and 11 concentration points are applied to each compound tested.
(3) After the cells are treated with the compound for 4 days, the cells are washed with PBS and fixed with 200 μl/well ice-cold 10% TCA for one hour at 0-5° C. condition.
(4) Remove TCA and rinse wells 5 times with deionized water. Dry plates upside down with paper towels. Stain cells with 0.4% SRB at 100 μl/well for 10 minutes.
(5) Pour off SRB and rinse plate 5 times with 1% acetic acid. Dry plate completely.
(6) Solubilize the dye with 10 mM Tris-base at 100 μl/well for 10 minutes on a shaker.
(7) Read the plate at dual wavelengths at 570 nm and 630 nm on Dynatech Elisa plate reader.

As for `CC(C)(C)c1cc(/C=C(\C#N)S(=O)(=O)c2ccccn2)cc(C(C)(C)C)c1O` [Compound M34, (E)-3-(3,5-di-t-Butyl-4-hydroxyphenyl)-2-[(pyrid-2-yl)sulfonyl]acrylonitrile], the IC50 worked out at 5.5 µM.

For the compound `CC(C)c1cc(/C=C(\C#N)S(=O)(=O)c2ccccn2)cc(C(C)C)c1O` [Compound M26], the 50% inhibitory concentration (IC50) was greater than 100 µM.

Take `CC(C)(C)c1cc(/C=C(\C#N)C(N)=S)cc(C(C)(C)C)c1O` [Compound M11]: the IC50 is 30 µM.

For `CC(C)(C)c1cc(/C=C(\C#N)S(=O)(=O)c2ccccc2)cc(C(C)(C)C)c1O` [Compound M33, (E)-3-(3,5-di-t-Butyl-4-hydroxyphenyl)-2-(phenylsulfonyl)acrylonitrile], the IC50 was found to be 9 µM.

In the case of `CC(C)c1cc(/C=C(\C#N)C(=O)NCCCc2ccccc2)cc(C(C)C)c1O` [Compound M21, (E)-3-(3,5-Diisopropyl-4-hydroxyphenyl)-2-[(3-phenyl-n-propyl)aminocarbonyl]acrylonitrile], half-maximal inhibition (IC50) was put at 70 µM.

In turn, `Cc1cc(/C=C(\C#N)S(=O)(=O)c2ccccn2)cc(C)c1O` [Compound M32] returned an IC50 of 80 µM.

`Cc1cc(/C=C(\C#N)S(=O)(=O)c2ccccc2)cc(C)c1O` [Compound M31]: the IC50 was greater than 100 µM.

`CC(C)c1cc(/C=C(\C#N)S(=O)(=O)CC#N)cc(C(C)C)c1O` [Compound M27] gave an IC50 of 50 µM.

In the case of `CC(C)c1cc(/C=C(\C#N)S(=O)(=O)/C(C#N)=C/c2cc(C(C)C)c(O)c(C(C)C)c2)cc(C(C)C)c1O` [Compound M29], the IC50 was 15 µM.

In turn, `CC(C)c1cc(/C=C(\C#N)S(=O)(=O)c2ccccc2)cc(C(C)C)c1O` [Compound M30] had an IC50 of 12 µM.

`CC(C)(C)c1cc(/C=C(\C#N)C(=O)NCCCc2ccccc2)cc(C(C)(C)C)c1O` [Compound M20, (E)-3-(3,5-di-t-Butyl-4-hydroxyphenyl)-2-[(3-phenyl-n-propyl)aminocarbonyl]acrylonitrile]: the IC50 was determined as 4 µM.

`CC(C)(C)c1cc(/C=C(\C#N)C(=O)Nc2ccc(C(F)(F)F)cc2)cc(C(C)(C)C)c1O` [Compound M35, (E)-3-(3,5-di-t-Butyl-4-hydroxyphenyl)-2-[(4-trifluoromethyl)phenylaminocarbonyl]acrylonitrile] came in with an IC50 of 0.25 µM.
